Laboratory results: ChEMBL document CHEMBL1201862, “PubChem BioAssay data set” (2004)
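Method: 48-hour compound exposure of cells in 96-well plates, five concentrations, linear interpolation of endpoints. GI50 marks 50% less growth.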 Activity calls are given as the source filed them. Rule as the data show it: active = GI50 up to about 1.1 µM and inactive = higher.

Experiments:
Assay in all cases: NCI tumour cell line growth inhibition, 48 h
BT-549 = system: BT-549
Hs-578T = system: Hs-578T
SK-MEL-28 = system: SK-MEL-28
OVCAR-4 = system: OVCAR-4
TK-10 = system: TK-10
MCF7 = system: MCF7
SF-268 = system: SF-268
M14 = system: M14
CCRF-CEM = system: CCRF-CEM
HOP-62 = system: HOP-62
COLO 205 = system: COLO 205
HT-29 = system: HT-29
HCT-116 = system: HCT-116
K562 = system: K562
HCC 2998 = system: HCC 2998
SNB-78 = system: SNB-78
NCI-H23 = system: NCI-H23
UACC-62 = system: UACC-62
NCI-H460 = system: NCI-H460
KM12 = system: KM12

Compound	GI50 (BT-549)	GI50 (Hs-578T)	GI50 (SK-MEL-28)	GI50 (OVCAR-4)	GI50 (TK-10)	GI50 (MCF7)	GI50 (SF-268)	GI50 (M14)	GI50 (CCRF-CEM)	GI50 (HOP-62)	GI50 (COLO 205)	GI50 (HT-29)	GI50 (HCT-116)	GI50 (K562)	GI50 (HCC 2998)	GI50 (SNB-78)	GI50 (NCI-H23)	GI50 (UACC-62)	GI50 (NCI-H460)	GI50 (KM12)
CN(O)C(=S)c1ccccc1	> 100 µM (inactive)	> 20.2 µM (inactive)	3.31 µM (inactive)	1.88 µM (inactive)	> 78.2 µM (inactive)	1.1 µM (active)	6.43 µM (inactive)	3.98 µM (inactive)	0.105 µM (active)	11.4 µM (inactive)	0.379 µM (active)	0.312 µM (active)	1.49 µM (inactive)	0.347 µM (active)	6.34 µM (inactive)	6.43 µM (inactive)	1.91 µM (inactive)	1.85 µM (inactive)	2.9 µM (inactive)	5.86 µM (inactive)
COc1cccc2c1C1(O)C2CCCC12OCCCO2 (stereo not drawn)			> 100 µM (inactive)	> 100 µM (inactive)	> 100 µM (inactive)		> 100 µM (inactive)	> 100 µM (inactive)	> 100 µM (inactive)	> 100 µM (inactive)	> 100 µM (inactive)	> 100 µM (inactive)	> 100 µM (inactive)	> 100 µM (inactive)	> 100 µM (inactive)	> 100 µM (inactive)	> 100 µM (inactive)	> 100 µM (inactive)	> 100 µM (inactive)	> 100 µM (inactive)
Cc1cccc(/C=N/N=C(\N)NO)n1			> 100 µM (inactive)	28.2 µM (inactive)	> 100 µM (inactive)		16.1 µM (inactive)	41.5 µM (inactive)	42.5 µM (inactive)	17.1 µM (inactive)	> 100 µM (inactive)	48.4 µM (inactive)	> 100 µM (inactive)	33.5 µM (inactive)	83.8 µM (inactive)	> 100 µM (inactive)	> 100 µM (inactive)	2.12 µM (inactive)	26.9 µM (inactive)	14.4 µM (inactive)
COC(=O)C1Cc2c(n(C)c3ccccc23)C(CCC(=O)O)N1Cc1ccccc1 (stereo not drawn)			28.4 µM (inactive)	33.7 µM (inactive)	55.8 µM (inactive)		26.4 µM (inactive)	25.5 µM (inactive)	25.4 µM (inactive)	> 100 µM (inactive)	27 µM (inactive)	36.1 µM (inactive)	21.2 µM (inactive)	37 µM (inactive)	> 100 µM (inactive)	32.8 µM (inactive)	26.4 µM (inactive)	26.6 µM (inactive)	23.6 µM (inactive)	28.4 µM (inactive)
COc1ccc(C(O)C(c2ccc(OCc3ccccc3)cc2)c2ccc(OCc3ccccc3)cc2)cc1 (stereo not drawn)			> 100 µM (inactive)	> 100 µM (inactive)	> 100 µM (inactive)		> 100 µM (inactive)	> 100 µM (inactive)	> 100 µM (inactive)	> 100 µM (inactive)	> 100 µM (inactive)	> 100 µM (inactive)	> 100 µM (inactive)	> 100 µM (inactive)	> 100 µM (inactive)	> 100 µM (inactive)	> 100 µM (inactive)	> 100 µM (inactive)	> 100 µM (inactive)	> 100 µM (inactive)
